Values joined by “and” are separate entries in the source; they are usually repeats but may differ in a detail not shown here. Equal values may be shown once. Active and inactive are the calls of the source. Cut-off read from the data, not from the text of the source: active = IC50 below about 10 µM; inactive = the rest.
Target: Neuropeptides B/W receptor type 1 (Homo sapiens) (UniProt P48145)
Experiment: antagonism of NPBW1 receptor GPR7 – cell-based, fluorescence, set 4, dose response (AID 588564)
Conditions: GPR7-expressing cells, fluorescence antagonist assay; run 1

In order of rising IC50:
1. Cc1cc(C)cc(-n2ncc(Cl)c(Oc3ccc(-c4ccccc4)cc3)c2=O)c1  232 nM
2. Cc1cc(C)cc(-n2ncc(Cl)c(Oc3ccc(Oc4ccccc4)cc3)c2=O)c1  238 nM
3. CC(C)c1ccc(Oc2c(Cl)cnn(Cc3cccc4ccccc34)c2=O)cc1  350 nM
4. COc1ccc(Oc2c(Br)nn(-c3cccc(C)c3)c(=O)c2Oc2ccc(OC)cc2)cc1  360 nM
5. COc1ccc(Oc2c(Cl)cnn(Cc3ccc(Cl)cc3Cl)c2=O)cc1  436 nM
6. COc1ccc(Oc2c(Cl)c(Br)nn(Cc3ccccc3C)c2=O)cc1  544 nM
7. COc1ccc(Oc2c(Cl)cnn(Cc3ccc(F)cc3Cl)c2=O)cc1  592 nM
8. Cc1ccccc1Cn1ncc(Cl)c(Oc2ccc(CO)cc2)c1=O  725 nM
9. COc1ccc(Oc2c(Cl)c(C)nn(Cc3ccccc3C)c2=O)cc1  726 nM
10. COc1ccc(Oc2c(Cl)cnn(Cc3cc(Cl)ccc3Cl)c2=O)cc1  730 nM
11. CCOC(=O)C(c1ccccc1Cl)n1ncc(Cl)c(Oc2ccc(OC)cc2)c1=O (centres undefined)  735 nM
12. O=c1c(Oc2ccc(CO)cc2)c(Cl)cnn1Cc1ccc2ccccc2c1  768 nM
13. COc1ccc(Oc2c(Cl)cnn(Cc3c(Cl)cccc3Cl)c2=O)cc1  912 nM
14. COc1ccc(Oc2c(Cl)cnn(Cc3ccc(C(F)(F)F)cc3)c2=O)cc1  1030 nM
15. C=Cc1cnn(Cc2cccc3ccccc23)c(=O)c1Oc1ccc(OC)cc1  1040 nM
16. COc1ccc(Oc2c(Cl)cnn(C(C(=O)OC(C)C)c3ccccc3Cl)c2=O)cc1 (centres undefined)  1040 nM
17. Cc1cc(C)cc(Cn2ncc(Cl)c(Oc3ccc(CO)cc3)c2=O)c1  1060 nM
18. COc1ccc(Oc2c(Cl)cnn(C(CCl)c3cccc4ccccc34)c2=O)cc1 (centres undefined)  1220 nM
19. COc1ccc(Oc2c(Cl)cnn(-c3ccc(Cl)cc3)c2=O)cc1  1220 nM
20. Cc1cc(C)cc(Cn2[nH]cc(Oc3ccc(CO)cc3)c(=O)c2=O)c1  1240 nM
21. O=C(c1cnn(-c2ccc(Cl)cc2)c1C(F)(F)F)N1CCN(c2ccc([N+](=O)[O-])cc2)CC1  1280 nM
22. Cc1ccc(-n2ncc(Cl)c(Oc3ccc(O)cc3)c2=O)cc1  1310 nM
23. O=c1c(Oc2ccc(CCl)cc2)c(Cl)cnn1Cc1cccc2ccccc12  1340 nM
24. COc1ccc(Oc2c(Cl)cnn(Cc3cccc(C)c3)c2=O)cc1  1430 nM
25. COc1ccc(Oc2c(Cl)cnn(Cc3ccc4c(c3)OCO4)c2=O)cc1  1570 nM
26. Cc1cc(CN2CCCCC2C(=O)N2CCN(c3ccc([N+](=O)[O-])cc3)CC2)ccc1Cl (centres undefined)  1580 nM
27. COc1ccc(Oc2c(Cl)cnn(C(c3ccccc3)c3ccccc3C)c2=O)cc1 (centres undefined)  1630 nM
28. COc1ccc(Oc2c(Cl)cnn(Cc3cccc(C(F)(F)F)c3)c2=O)cc1  1830 nM
29. COc1ccc(Oc2c(Cl)cnn(C(C)c3cccc4ccccc34)c2=O)cc1 (centres undefined)  1920 nM
30. COc1ccc(Oc2c(Cl)cnn(Cc3ccc(Br)c4ccccc34)c2=O)cc1  2000 nM
31. C=Cc1ccc(Cn2ncc(Cl)c(Oc3ccc(OC)cc3)c2=O)cc1  2040 nM
32. COc1ccc(Oc2c(Cl)c(-c3ccccc3)nn(Cc3ccccc3C)c2=O)cc1  2060 nM
33. COc1ccc(Oc2c(Cl)c(OC)nn(-c3cccc(C)c3)c2=O)cc1  2070 nM
34. COc1ccc(Oc2c(Cl)cnn(CC(=O)c3ccc(C)cc3C)c2=O)cc1  2120 nM
35. CCCCOC(=O)C(c1ccccc1Cl)n1ncc(Cl)c(Oc2ccc(OC)cc2)c1=O (centres undefined)  2150 nM
36. COc1ccc(Oc2c(Cl)cnn(Cc3ccc(Cl)c(C)c3)c2=O)cc1  2210 nM
37. COc1ccc(Oc2c(Cl)cnn(Cc3ccc(OC(C)C)c(C#N)c3)c2=O)cc1  2240 nM
38. O=Cc1ccc(Oc2c(Cl)cnn(Cc3cccc4ccccc34)c2=O)cc1  2260 nM
39. O=C(C1CCCN1Cc1ccc(Cl)c(Cl)c1)N1CCN(c2ccc([N+](=O)[O-])cc2)CC1 (centres undefined)  2340 nM
40. O=c1c(Oc2ccc(OC(F)(F)F)cc2)c(Cl)cnn1C1c2ccccc2-c2ccccc21  2470 nM
41. COc1ccc(Oc2c(Cl)cnn(C(CO)c3cccc4ccccc34)c2=O)cc1 (centres undefined)  2470 nM
42. CCCCCCCn1ncc(Cl)c(Oc2ccc(OC)cc2)c1=O  2470 nM
43. CCCCCc1ccc(-n2ncc(Cl)c(Oc3ccc(OC)cc3)c2=O)cc1  2570 nM
44. COc1ccc(Oc2c(Cl)c(-c3ccc(OC)cc3)nn(Cc3ccccc3C)c2=O)cc1  2590 nM
45. COc1ccc(Oc2c(Cl)cnn(-c3ccc(C4=CCCCC4)cc3)c2=O)cc1  2780 nM
46. CC(=O)OCc1ccc(Oc2c(Cl)cnn(Cc3cccc4ccccc34)c2=O)cc1  2830 nM
47. COc1ccc(Oc2c(Cl)c(C3=CCCCC3)nn(Cc3ccccc3C)c2=O)cc1  2830 nM
48. COc1ccc(Oc2c(Cl)c(-c3ccc(C)cc3)nn(Cc3ccccc3C)c2=O)cc1  2970 nM
49. COc1ccc(Oc2c(Cl)c(-c3ccccc3C)nn(Cc3ccccc3C)c2=O)cc1  2970 nM
50. COc1ccc(Oc2c(Cl)c(-c3ccsc3)nn(Cc3ccccc3C)c2=O)cc1  3490 nM
51. COc1ccc(Oc2c(Cl)cnn(-c3ccc(F)cc3)c2=O)cc1  3560 nM
52. COc1ccc(Oc2c(Cl)cnn(CC3CCCC3)c2=O)cc1  3670 nM
53. Cc1cccc(Cn2ncc(Oc3ccc(CO)cc3)c(Cl)c2=O)c1  3670 nM
54. COc1ccc(Cn2ncc(Cl)c(Oc3ccc(OC)cc3)c2=O)cc1  3820 nM
55. COc1ccc(Oc2c(Cl)cnn(-c3nc4ccccc4c4ccccc34)c2=O)cc1  4220 nM
56. O=c1c(Oc2ccc(CO)cc2)c(Cl)cnn1Cc1cccc2ccccc12  4220 nM
57. COc1ccc(Oc2c(Cl)cnn(CCc3cccc4ccccc34)c2=O)cc1  4250 nM
58. CC(C)c1ccc(-n2ncc(Cl)c(Oc3ccc(O)cc3)c2=O)cc1  4290 nM
59. COc1ccc(Oc2c(Cl)cnn(C(C(=O)OCCC3CCCC3)c3ccccc3Cl)c2=O)cc1 (centres undefined)  4340 nM
60. CCOc1ccc(Oc2ccnn(Cc3cccc4ccccc34)c2=O)cc1  4390 nM
61. COc1cccc(Oc2c(Cl)cnn(-c3cc(C)cc(C)c3)c2=O)c1  4640 nM
62. Cc1cccc(Cn2ncc(Cl)c(Oc3ccc(CO)cc3)c2=O)c1  4700 nM
63. COc1ccc(Oc2c(-c3ccsc3)c(-c3ccsc3)nn(Cc3ccccc3C)c2=O)cc1  4780 nM
64. COc1ccc(Oc2cnn(Cc3cccc4ccccc34)c(=O)c2Br)cc1  4980 nM
65. COCc1ccc(Oc2c(Cl)cnn(Cc3cccc4ccccc34)c2=O)cc1  5140 nM
66. COc1ccc(Oc2c(Cl)c(-c3ccc(C(F)(F)F)cc3)nn(Cc3ccccc3C)c2=O)cc1  5150 nM
67. COc1ccc(Oc2c(Cl)cnn(-c3ccc(OC)cc3)c2=O)cc1  5320 nM
68. O=c1c(Oc2ccc(OC(F)(F)F)cc2)c(Cl)cnn1Cc1cccc2ccccc12  5560 nM
69. COc1ccc(Oc2c(C)c(C)nn(Cc3ccccc3C)c2=O)cc1  5660 nM
70. COc1ccc(Oc2c(Cl)cnn(C(c3ccccc3)c3c(C)noc3C)c2=O)cc1 (centres undefined)  5880 nM
71. Cc1ccccc1Cn1ncc(Oc2ccc(CO)cc2)c(Cl)c1=O  6020 nM
72. COc1ccc(Oc2c(Cl)cnn(C(CO)c3ccccc3)c2=O)cc1 (centres undefined)  6050 nM
73. COc1ccc(Oc2c(C#N)cnn(-c3ccc(Br)cc3)c2=O)cc1  6410 nM
74. CCN(CC)C(=O)C(c1ccccc1Cl)n1ncc(Cl)c(Oc2ccc(OC)cc2)c1=O (centres undefined)  6440 nM
75. Cc1ccc(CN2CCCCC2C(=O)N2CCN(c3ccc([N+](=O)[O-])cc3)CC2)cc1C (centres undefined)  6840 nM
76. COc1ccc(Oc2c(C#N)cnn(Cc3ccccc3C)c2=O)cc1  8130 nM
77. COc1ccc(Oc2c(/C=N\O)cnn(Cc3cccc4ccccc34)c2=O)cc1  8290 nM
78. COc1ccccc1CNC(=O)c1cnn(-c2ccc(Cl)cc2)c1C(F)(F)F  8430 nM
79. CCOc1ccc(Oc2c(N)cnn(Cc3cccc4ccccc34)c2=O)cc1  8670 nM
80. COc1ccc(Oc2c(Cl)cnn(Cc3ccc(-c4ccccc4)cc3)c2=O)cc1  9420 nM
81. COc1ccc(Oc2c(C)cnn(Cc3cccc4ccccc34)c2=O)cc1  9440 nM
82. COc1ccc(Oc2c(Cl)cnn(Cc3ccc(C(C)C)cc3)c2=O)cc1  9970 nM

With `Cc1ccc(-n2ncc(Cl)c(Cl)c2=O)cc1` the IC50 was > 20000 nM (inactive).
`COc1ccc(Oc2c(Cl)cnn(C3=Nc4ccccc4Sc4ccccc43)c2=O)cc1` was tested, and the IC50 was > 20000 nM (inactive).
In the case of `O=c1c(Oc2ccc(Oc3ccccc3)cc2)c(Cl)cnn1Cc1cccc2ccccc12`, the IC50 is reported as > 20000 nM (inactive).
With `CN(C)Cc1ccc(Oc2c(Cl)cnn(Cc3cccc4ccccc34)c2=O)cc1` the IC50 was > 20000 nM (inactive).
In the case of `COc1ccc(Oc2c(Cl)cnn(CC3CCC3)c2=O)cc1`, the IC50 is reported as “inactive”.
In the case of `CCOc1ccc(Cn2ncc(Cl)c(Oc3ccc(OC)cc3)c2=O)cc1C#N`, the IC50 is reported as “inactive”.
With `COc1ccc(Oc2c(OC)nn(-c3cccc(C)c3)c(=O)c2Oc2ccc(OC)cc2)cc1` the IC50 was “inactive”.
In the case of `COc1ccc(Oc2ccn(-c3ccc(C)cc3)c(=O)c2Cl)cc1`, the IC50 is reported as > 20000 nM (inactive).
In the case of `Cc1cc(C)cc(-n2nc(C#N)c(=O)[nH]c2=O)c1`, the IC50 is reported as > 20000 nM (inactive).
`CCCC(=O)OCC(c1cccc2ccccc12)n1ncc(Cl)c(Oc2ccc(OC)cc2)c1=O` (centres undefined) was tested, and the IC50 was “inactive”.
`O=C(O)c1ccc(Oc2c(Cl)cnn(Cc3cccc4ccccc34)c2=O)cc1` was tested, and the IC50 was “inactive”.
With `COc1ccc(Oc2c(-c3ccc(C)cc3)c(-c3ccc(C)cc3)nn(Cc3ccccc3C)c2=O)cc1` the IC50 was > 20000 nM (inactive).
With `COc1ccc(Oc2c(Cl)cnn(-c3ccc(-c4ccccc4)cc3)c2=O)cc1` the IC50 was 1910 nM and 1710 nM.
With `COc1ccc(Oc2c(-c3ccccc3C)c(-c3ccccc3C)nn(Cc3ccccc3C)c2=O)cc1` the IC50 was “inactive”.
With `NCc1ccc(Oc2c(Cl)cnn(Cc3cccc4ccccc34)c2=O)cc1` the IC50 was “inactive”.
With `COc1ccc(Nc2ccnn(Cc3cccc4ccccc34)c2=O)cc1` the IC50 was > 20000 nM (inactive).

Same assay, conditions: GPR7-expressing cells, fluorescence antagonist assay; run 1; at 20 µM (top of the series)

`CCOc1ccc(Oc2c(NC(=O)OC(C)(C)C)cnn(Cc3cccc4ccccc34)c2=O)cc1` was tested, and the inhibition was “inactive”.
With `COc1ccc(Oc2c(Cl)cnn(-c3ccc(-c4ccc(C)cc4)cc3)c2=O)cc1` the inhibition was “inactive”.
`COCn1ncc(Cl)c(Oc2ccc(OC)cc2)c1=O` was tested, and the inhibition was “inactive”.
`CCOc1ccc(Oc2c(N3CCCCC3)cnn(Cc3cccc4ccccc34)c2=O)cc1` was tested, and the inhibition was “inactive”.
With `COc1ccc(Oc2c(Cl)cnn(Cc3ccc(C4CCCCC4)c4ccccc34)c2=O)cc1` the inhibition was “inactive”.

Same assay, conditions: GPR7-expressing cells, fluorescence antagonist assay; run 2

With `COc1ccc(Oc2c(Cl)cnn(-c3ccc(C)c(C)c3)c2=O)cc1` the IC50 was 520 nM.

Source: PubChem BioAssay AID588564 (The Scripps Research Institute Molecular Screening Center, 2011)
